From patent US6733971B2, “Method for identifying an agent that affects a hedgehog signaling pathway” (priority 1998, dated 2004)

Legend:
SV40 enhancer = experiment: Constitutively active SV40 enhancer luciferase reporter (specificity control); format: cell-based; conditions: 5 nM (data not shown)
[1] = test system: PP1 and PP2A enzyme activity; experiment: Protein phosphatase assay on nuclear extracts of control and Shh treated P19 cells; format: biochemical, mouse; conditions: 2 nM, 15 minutes at 30° C., nuclear extracts of 1 nM Shh treated P19 cells
Method: P19 cells were treated with or without 1 nM Shh for 36 hours and nuclear extracts from these cells were obtained as described earlier. A protein phosphatase assay system™ (Life Technologies, Bethesda) was used to quantitate the phosphatase activity present in the control and induced extracts. P19 cells were treated with or without 1 nM Shh for 36 hours and nuclear extracts from these cells were obtained and incubated with 2 nM OA or 4 nM Inh-2 protein for 15 minutes at 30° C. Results are expressed as mean±sd from three separate experiments.

ShhRE = experiment: EMSA of Shh-induced protein binding to radiolabeled ShhRE, P19 nuclear extracts; format: cell-based, mouse; conditions: 5 nM, 1.0 nM Shh-N, 24 hours
Method: Methods described in Example 6 were used in addition to the following protocols. P19 cells were treated with or without Shh-N for 24 hours and nuclear extracts were obtained and used in an electrophoretic mobility shift assay (EMSA) with radiolabeled ShhRE. The following oligos were used as competitors or probes in these assays; WT ShhRE—GTTCTACATAATGCGCCG—SEQ ID NO:1; mShhRE—GTTCTACgTgATGCGCCG—SEQ ID NO:3; GliRE—[…]—. SEQ ID NO:4, Different amounts of unlabeled Gli response element (GliRE) (FIG. 5C, lane 3, 100X; lane 4, 50X; lane 5, 25X; and lane 6, 10X) or ShhRE (lane 7; 100X, lane 8; 50X and lane 9; 10X) was used as a competitor at the indicated molar excess.
In EMSA, radiolabeled probe was incubated with the nuclear extracts (10 μg) along with 4 μg poly dG-dC in a binding reaction containing 10 mM Tris pH 7.5, 50 mM NaCl, 1 mM EDTA, 1 mM DTT, 0.1 mg/ml BSA, and 5% glycerol. Later the mixture was loaded onto a 5% polyacrylamide gel and the retarded complexes were separated-in 1× TBE buffer and analyzed using autoradiography.
(§1) P-19 cells were treated with phosphatase inhibitors to study the endogenous levels of COUP-TFII mRNA. […] Total RVA was isolated from these cells and 20 μg of RNA was used in a RNase protection assay as described above in Example 6. A region of the murine Cyclophilin A cDNA was used to generate riboprobe and was used as an internal control. P19 cells were co-treated with (FIG. 7C, lane 2, 4, 6, and 7) or without (FIG. 7C, lane 1, 3, and 5) 1.0 nM Shh-N and 5 nM OA (lane 3 and 4), 0.5 nM CyA (FIG. 7C, lane 5 & 6) or 5 nm NoA (FIG. 7C, lane 9). Cells were harvested after 24 hours of treatment and the nuclear extract was obtained for the binding reactions. Extracts were subjected to an EMSA as described earlier.

PP2B = conditions: cited from earlier work
[2] = test system: Islet-1 and neurofilament (NFL); experiment: Mouse neural tube explants, whole-mount immunostaining; format: cell-based; conditions: 5 nM for 24 hours
Method: Mouse embryos at embryonic day 9-9.5 were dissected in such a way as to remove surface ectoderm and somitic mesoderm and neural tubes were isolated from the level of rhombomere 8 in the rostral region to the first segmenting somite in the caudal region. Neural tubes were cultured for 24 hours, dorsal-side down on Millicell-CM membranes and overlayed with Matrigel™ containing 10 ng/ml NT-3, with L15 air in presence or absence of 5nM OA. The explants were subjected to whole-mount immunostaining using a monoclonal antibody raised against mouse Islet-1 (39.4D5) or neurofilament (NFL) was used to analyze any changes in Islet-1 and NFL expression.

COUP-TFII mRNA = COUP-TFII mRNA in P19 cells, RNase protection assay; format: cell-based, mouse; conditions: 5 nM for 12 hours, with 1.0 nM Shh-N
Method: The P19 mouse embryo carcinoma cell line which was earlier shown to contain increased levels of COUP-TF transcripts after retinoid treatment was utilized. Jonk, L. J. C., et al., Mechan. of Dev. (1994) 47:81-97). Conditioned media obtained from COS-1 cells transfected with mouse Shh-N cDNA expression plasmid or purified E. coli expressed recombinant Shh-N was used.
Briefly, a total of 20 μg RNA was hybridized to a 450 (FIG. 5A) or 120 (FIG. 7B) nucleotide riboprobe that corresponds to the 5′ untranslated region (UTR) of the COUP-TFII gene along with a 670 (FIG. 5A) or 102 (FIG. 7B) nucleotide riboprobe of the murine Cyclophilin A coding region. The RPA II™ kit from Ambion was used to perform the RNase protection assay. The products were subjected to RNase digestion and analyzed on a 6% urea polyacrylamide gel.
as §1

HNF3β and Isl-1 = experiment: SHH induction of HNF3β and Isl-1 in chick embryo neurotube explant; format: cell-based
Description: Most of the components identified so far in the HH signaling pathway are conserved from Drosophila to vertebrates. The phosphatase activity found in cl-8 cells may also be conserved in vertebrates. Sonic HH (SHH), the vertebrate homolog of HH, induced the floor plate marker hepatocyte nuclear factor 3β (HNF3) and motor neuron marker islet-1 (Is1-1) in the developing neurotube. In chick embryo neurotube explant, exogenously provided SHH induced the expression of HNF3β and Isl-1.

PP2C = conditions: cited from earlier work
GliRE = experiment: GliRE-CAT reporter in P19 cells cotransfected with Shh expression plasmid; format: cell-based, mouse; conditions: 5 nM for 14 hours
Method: P19 cells were cotransfected with pBKCMV-Shh expression plasmid and a GliRECAT reporter plasmid (1 μg)as described earlier. Krishnan, V., et al., Mol. Endo., 11: 1458-1466, 1997. Cells cotransfected with pBKCMY-Shh or pBKCMV plasmid (200 ng) were treated with or without 5 nM OA for 14 hours and reporter gene activity was assayed as described earlier. Gorman, C. M., et al., Mol. and Cell. Biology, 2:1044-1051, 1982. Results are expressed as mean±sd from three separate experiments.

C=C1[C@@H](O)[C@@H]2O[C@]3(CC[C@H](/C=C/[C@@H](C)[C@@H]4CC(C)=C[C@@]5(O[C@H](C[C@@](C)(O)C(=O)O)CC[C@H]5O)O4)O3)CC[C@H]2O[C@@H]1[C@@H](O)C[C@H](C)[C@H]1O[C@@]2(CCCCO2)CC[C@H]1C [OA, okadaic acid]
SV40 enhancer driven luciferase reporter gene activity (SV40 enhancer): did not effect | Shh-induced phosphatase activity [1]: completely abolished | Shh-induced binding to radiolabeled ShhRE (ShhRE): abolished | effect on PP2B (PP2B): no effect | neurofilament staining within the neural tube [2]: no effect | levels of immunodetectable Is11 protein ([2]; 9.5 dpc mouse neural tube explants): significantly decreased | Shh-induced COUP-TFII mRNA (COUP-TFII mRNA): complete inhibition | induction of HNF3β and Isl-1 (HNF3β and Isl-1; 1 nM, 2.5 mg/ml of SHH): reduced the induction | effect on induction of HNF3β and Isl-1 at higher SHH (HNF3β and Isl-1; 1 nM, 10 mg/ml of SHH): reversed | induction of HNF3β and Isl-1 (HNF3β and Isl-1; 10 nM, 10 mg/ml of SHH): completely blocked the induction | effect on PP2C (PP2C): no effect | Shh-enhanced GliRE-CAT reporter activity (GliRE): sensitive
